Values quoted from earlier work as cited in patent EP3297603B1, “CINEOLE-CONTAINING AQUEOUS COMPOSITION FOR NASAL APPLICATION” (Maria Clementine Martin Klosterfrau Vertriebsgesellschaft …, priority 2015, dated 2017).

Conditions: general property, reference to RÖMPP Chemielexikon

CC12CCC(CC1)C(C)(C)O2 [1,8-Cineol, 1,3,3-Trimethyl-2-oxabicyclo[2.2.2]octan]
Löslichkeit in Wasser: in Wasser unlöslich
